In ChEMBL document CHEMBL1129678, “Structure-activity relationships in a series of 2(1H)-quinolones bearing different acidic function in the 3-position: 6,7-dichloro-2(1H)-oxoquinoline-3-phosphonic acid, a new potent and selective AMPA/kainate antagonist with neuroprotective properties” (J Med Chem, 1996):
pIC50: −log10 of the molar value. Active and inactive are the calls of the source. The rule behind the calls is not given here.

Assays:
[1] = Selectivity between AMPA/kainate receptor and NMDA/glycine receptor; parameters: reference not given here
Glutamate NMDA receptor [2] = assay: Antagonistic activity against N-methyl-D-aspartate glutamate receptor 1 in Xenopus oocytes; format: functional, cell-based; conditions: oocyte
[3] = target: Glutamate receptor ionotropic, kainate; assay: Antagonistic activity against rat ionotropic glutamate receptor ionotropic kainate in xenopus oocytes; format: functional, cell-based; conditions: oocyte
[4] = target: AMPA receptor (Rattus norvegicus); assay: Inhibitory activity against [3H]AMPA binding to rat cortical membranes
Glutamate NMDA receptor [5] = assay: Inhibitory activity against [3H]glycine binding site of N-methyl-D-aspartate glutamate receptor 1 in rat cortical membranes; format: cell membranes, Membrane
Mus musculus [6] = assay: Effective dose of a compound to […] 50% audiogenic seizures in DBA/2 mice when administered by ip (mg/Kg); format: functional
Mus musculus [7] = assay: Effective dose required to protect 50% of DBA/2 mice from audiogenic seizures, after ip administration; format: functional
Mus musculus [8] = assay: Effective dose of a compound to […] 50% audiogenic seizures in DBA/2 mice when administered by po (mg/kg); Not active; format: functional, organism-based
Gerbillinae [9] = assay: %Protection against transient global ischemia in adult Mongolian gerbil at dose 10 mg/kg by ip administration tested against 10; format: functional; conditions: route intraperitoneal
Gerbillinae [10] = assay: %Protection against transient global ischemia in adult Mongolian gerbil at dose 30 mg/kg by ip administration tested against 6; format: functional; conditions: route intraperitoneal
Gerbillinae [11] = assay: %Protection against transient global ischemia in adult Mongolian gerbil at dose 30 mg/Kg by ip administration tested against 6; format: functional
Gerbillinae [12] = assay: %Protection against transient global ischemia in adult Mongolian gerbil at dose 10 mg/Kg by ip administration tested against 10; format: functional
Mus musculus [13] = assay: Effective dose required to protect 50% of DBA/2 mice from audiogenic seizures, after po administration; format: functional

Row | Structure (SMILES) | Selectivity [1] | pIC50 (Glutamate NMDA receptor [2]) | pIC50 [3] | further results
1 | CCOP(=O)(O)c1cc2cc(Cl)c(Cl)cc2nc1O | 2.6 | 4.40 | 4.82 | 
2 | O=C(NO)c1cc2ccc([N+](=O)[O-])cc2nc1O | > 10 | < 4.00 | 5.00 | 
3 | O=c1[nH]c2cc(Cl)c(Cl)cc2cc1P(=O)(O)O |  | 4.08 | 5.68 | pIC50 [4]: 6.05; pIC50 (Glutamate NMDA receptor [5]): 3.95
4 | O=[N+]([O-])c1ccc2cc(-c3nnc(O)o3)c(O)nc2c1 |  | < 4.00 | < 4.00 | 
5 | O=[N+]([O-])c1ccc2cc(P(=O)(O)O)c(O)nc2c1 | 41 | 4.24 | 5.85 | 
6 | O=C(O)CSc1cc2ccc([N+](=O)[O-])cc2nc1O | > 20 | < 4.00 | 5.30 | 
7 | O=P(O)(O)c1cc2c(Cl)cc(Cl)cc2nc1O | 7.5 | 4.52 | 5.40 | pIC50 [4]: 5.46; ED50 (Mus musculus [6]): > 50 mg/kg; pIC50 (Glutamate NMDA receptor [5]): 5.29
8 | NC(=O)c1cc2ccc([N+](=O)[O-])cc2nc1O |  | < 3.52 | < 3.52 | 
9 | O=c1[nH]c2cc([N+](=O)[O-])ccc2cc1-c1cc(O)n[nH]1 |  | < 4.00 | < 4.52 | 
10 | O=[N+]([O-])c1cc2cc(NS(=O)(=O)C(F)(F)F)c(O)nc2cc1[N+](=O)[O-] | 1 | 6.80 | 6.80 | ED50 (Mus musculus [7]): > 50 mg/kg; pIC50 [4]: 7.05; pIC50 (Glutamate NMDA receptor [5]): 5.86
11 | O=C(Nc1nn[nH]n1)c1cc2ccc([N+](=O)[O-])cc2nc1O | > 0.16 | < 4.80 | 4.00 | 
12 | CP(=O)(O)c1cc2c(Cl)cc(Cl)cc2nc1O | < 0.5 | 4.29 | < 4.00 | 
13 | O=[N+]([O-])c1cc2cc(-c3nn[nH]n3)c(O)nc2cc1[N+](=O)[O-] | 33 | 4.70 | 6.22 | 
14 | NS(=O)(=O)c1cccc2c1c([N+](=O)[O-])cc1nc(O)c(O)nc12 [NBQX] |  | 3.59 |  | ED50 (Mus musculus [7]): 8 mg/kg; ED50 (Mus musculus [8]): inactive; pIC50 (Glutamate NMDA receptor [5]): < 3.30; Protection (Gerbillinae [9]): 40%; Protection (Gerbillinae [10]): 50%
15 | O=P(O)(O)c1cc2cc(F)c(F)cc2nc1O | 1.71 | 3.95 | 4.19 | 
16 | O=c1[nH]c2cc(-n3ccnc3)c([N+](=O)[O-])cc2[nH]c1=O [YM-90K] | 102 | 4.52 | 6.52 | 
17 | O=P(O)(OCC1CCCC1)c1cc2cc(Cl)c(Cl)cc2nc1O | 5 | 4.13 | 4.82 | 
18 | O=P(O)(O)c1cc2cc(Cl)c(Cl)cc2nc1O | 39.8 |  |  | ED50 (Mus musculus [7]): 19 mg/kg; Protection (Gerbillinae [11]): 100%; Protection (Gerbillinae [12]): 40%; ED50 (Mus musculus [13]): 45 mg/kg
19 | O=C(O)c1cc2ccc([N+](=O)[O-])cc2nc1O | 5 | 5.19 | 5.89 | 
20 | O=C(O)c1cc2cc(Cl)c(Cl)cc2nc1O | 0.08 | 6.09 | 5.00 | 
21 | O=C(O)c1cc2cc([N+](=O)[O-])c([N+](=O)[O-])cc2nc1O | 1.9 | 6.24 | 6.52 | ED50 (Mus musculus [7]): > 50 mg/kg; pIC50 [4]: 6.82; pIC50 (Glutamate NMDA receptor [5]): 5.74
22 | OB(O)c1cc2c(Cl)cc(Cl)cc2nc1O |  | < 3.52 | < 4.00 | 
23 | O=C(O)c1cc2c(Cl)cc(Cl)cc2nc1O | 0.08 | 6.19 | 5.10 | 
24 | O=[N+]([O-])c1ccc2cc(-c3nn[nH]n3)c(O)nc2c1 | > 5 | < 4.80 | 5.52 | 
25 | O=[N+]([O-])c1cc2cc(P(=O)(O)O)c(O)nc2cc1[N+](=O)[O-] | 343 | 4.29 | 6.82 | 
